# Reference: PMC12431657, “Discovery and mechanistic insights of dibenzoylmethane as a broad spectrum inhibitor of coronavirus” (PLOS Pathogens, 2025)
# “And” between values parts separate entries of the source, which are not always exact repeats. Equal entries are not always repeated. Where two headings read alike, the source gives them in different places.
# Experiments:
# Huh-7 cells [1] = system: Huh-7 cells; set-up: unit not given beside the values
# Huh-7 cells [2] = test: Cytotoxicity assay (CCK-8), Huh-7 cells
# HCoV-229E [3] = test: Antiviral activity in vitro, viral RNA copies by qRT-PCR, HCoV-229E in Huh-7 cells; type: cell-based; conditions: for EC50 (229E, Huh-7): inhibition at the concentration: replicates
# HCoV-229E [4] = test: Antiviral activity in vitro, qRT-PCR, HCoV-229E in MRC-5 cells; type: cell-based; conditions: for HCoV-229E, MRC-5: inhibition at the concentration (Fig2B): replicates
# HCoV-OC43 [5] = test: Antiviral activity in vitro, qRT-PCR, HCoV-OC43 in RD cells; type: cell-based; conditions: for EC50 (OC43, RD): inhibition at the concentration: replicates
# HCoV-OC43 [6] = test: Antiviral activity in vitro, qRT-PCR, HCoV-OC43 in Huh-7 cells; type: cell-based; conditions: for HCoV-OC43, Huh-7: inhibition at the concentration (Fig2B): replicates
# HCoV-OC43 [7] = conditions: columbianadin 50 mpk QD, erythromycin estolate 300 mpk QD
# [8] = erythromycin estolate exceeding 300 mpk, veratramine exceeding 10 mpk; cited from earlier work
structure (smiles),measurement,setting,value
COc1c(CC=C(C)C)c(O)cc2oc(=O)c3c4ccc(O)cc4oc3c12 [neoglycyrol],CC50 (Huh-7): dose-response value per replicate,Huh-7 cells [1],37.8
same,selectivity index (SI),Huh-7 cells [2],below 25
COc1ccc2cc1Oc1ccc(cc1)C[C@H]1c3cc(c(OC)cc3CCN1C)Oc1c(OC)c(OC)cc3c1[C@H](C2)N(C)CC3 [tetrandrine],CC50 (Huh-7): dose-response value per replicate,Huh-7 cells [1]; human,114.8
same,selectivity index (SI),Huh-7 cells [2],below 25
"CCC(=O)O[C@H]1[C@H](O[C@@H]2[C@@H](C)[C@H](O[C@H]3C[C@@](C)(OC)[C@@H](O)[C@H](C)O3)[C@@H](C)C(=O)O[C@H](CC)[C@@](C)(O)[C@H](O)[C@@H](C)C(=O)[C@H](C)C[C@@]2(C)O)O[C@H](C)C[C@@H]1N(C)C [Erythromycin estolate, erythromycin estolate, reference compound]",EC50,"HCoV-229E [3]; Human coronavirus 229E, Huh-7, 24 h, read-out: EC50 HCoV-229E (Huh-7)",3.04 µM
same,"EC50 (229E, Huh-7): inhibition at the concentration",HCoV-229E [3]; conc. 0.1 (unit not given),56.8 and 60.1 and 43.4
same,"EC50 (229E, Huh-7): inhibition at the concentration",HCoV-229E [3]; conc. 0.2 (unit not given),31.4 and 41.8 and 52.9
same,"EC50 (229E, Huh-7): inhibition at the concentration",HCoV-229E [3]; conc. 0.7 (unit not given),61.1 and 42.4 and 25.7
same,"EC50 (229E, Huh-7): inhibition at the concentration",HCoV-229E [3]; conc. 2.2 (unit not given),61.7 and 57.1 and 74.9
same,"EC50 (229E, Huh-7): inhibition at the concentration",HCoV-229E [3]; conc. 6.7 (unit not given),79.9 and 80.4 and 68.3
same,"EC50 (229E, Huh-7): inhibition at the concentration",HCoV-229E [3]; conc. 20 (unit not given),82.8 and 90.2 and 91.5
same,EC50,"HCoV-229E [4]; Human coronavirus 229E, MRC5, 24 h, read-out: EC50 HCoV-229E (MRC-5)",9.21 µM
same,"HCoV-229E, MRC-5: inhibition at the concentration (Fig2B)",HCoV-229E [4]; conc. 0.1 (unit not given),0.6 and 0.5 and 1.3
same,"HCoV-229E, MRC-5: inhibition at the concentration (Fig2B)",HCoV-229E [4]; conc. 0.2 (unit not given),18.6 and 2.4 and -3.2
same,"HCoV-229E, MRC-5: inhibition at the concentration (Fig2B)",HCoV-229E [4]; conc. 0.7 (unit not given),2.2 and 1.5 and 26.7
same,"HCoV-229E, MRC-5: inhibition at the concentration (Fig2B)",HCoV-229E [4]; conc. 2.2 (unit not given),3.2 and -1.4 and 0.1
same,"HCoV-229E, MRC-5: inhibition at the concentration (Fig2B)",HCoV-229E [4]; conc. 6.7 (unit not given),0.7 and 0.9 and 1.2
same,"HCoV-229E, MRC-5: inhibition at the concentration (Fig2B)",HCoV-229E [4]; conc. 20.0 (unit not given),90.1 and 91.7 and 86.2
same,EC50,"HCoV-OC43 [5]; Betacoronavirus 1, OC43, RD, 24 h, read-out: EC50 HCoV-OC43 (RD)",0.46 µM
same,"EC50 (OC43, RD): inhibition at the concentration",HCoV-OC43 [5]; conc. 0.1 (unit not given),-62.2 and -76.2 (2×)
same,"EC50 (OC43, RD): inhibition at the concentration",HCoV-OC43 [5]; conc. 0.2 (unit not given),31.5 and 23.3 and 28
same,"EC50 (OC43, RD): inhibition at the concentration",HCoV-OC43 [5]; conc. 0.7 (unit not given),73.9 and 79.2 and 79.3
same,"EC50 (OC43, RD): inhibition at the concentration",HCoV-OC43 [5]; conc. 2.2 (unit not given),69.6 and 71.7 and 71.9
same,"EC50 (OC43, RD): inhibition at the concentration",HCoV-OC43 [5]; conc. 6.7 (unit not given),83.9 and 85 and 84.5
same,"EC50 (OC43, RD): inhibition at the concentration",HCoV-OC43 [5]; conc. 20 (unit not given),98.4 and 98.5
same,EC50,"HCoV-OC43 [6]; Betacoronavirus 1, OC43, Huh-7, 24 h, read-out: EC50 HCoV-OC43 (Huh-7)",0.73 µM
same,"HCoV-OC43, Huh-7: inhibition at the concentration (Fig2B)",HCoV-OC43 [6]; conc. 0.2 (unit not given),18.4 and 11.5 and -3.5
same,"HCoV-OC43, Huh-7: inhibition at the concentration (Fig2B)",HCoV-OC43 [6]; conc. 0.7 (unit not given),62.9 and 63.5 and 57.4
same,"HCoV-OC43, Huh-7: inhibition at the concentration (Fig2B)",HCoV-OC43 [6]; conc. 2.2 (unit not given),73.5 and 73.6 and 72.3
same,"HCoV-OC43, Huh-7: inhibition at the concentration (Fig2B)",HCoV-OC43 [6]; conc. 6.7 (unit not given),95.6 and 95.5 and 95.7
same,"HCoV-OC43, Huh-7: inhibition at the concentration (Fig2B)",HCoV-OC43 [6]; conc. 20.0 (unit not given),98.3 (2×) and 98.1
same,number of viral RNA copies in HCoV-OC43-infected mice,HCoV-OC43 [7],did not significantly reduce
same,safe use in antitumour mouse models,[8],safely used
CCC/C=C1\OC(=O)C2=C1CC[C@H]1[C@H]3C=C4C(=O)O/C(=C\CCC)[C@@]4(CC3)[C@@H]21 [levistolide A],CC50 (Huh-7): dose-response value per replicate,Huh-7 cells [1],17.6
same,selectivity index (SI),Huh-7 cells [2],below 25
